PubChem BioAssay AID1963829 (Molecular Pharmacology Branch, DTP, NCI, 2024)

Tested on: 935938-334-R-J1-PDC complex spheroid viability
Assay: Anticancer human tumor 935938-334-R-J1-PDC patient-derived small intestine adenocarcinoma cell line growth inhibition [POLQ]
Settings: for IC50: curve of first compound; for viability, T/C: stronger effect = lower value
Summary of the method: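 Patient-derived tumour cells were co-cultured with HUVEC and mesenchymal stem cells as multicellular spheroids at 37 °C. They were treated with POLQ inhibitors (novobiocin, ART-558, RP6685) alone or combined with other agents. Top concentrations were at or near clinical Cmax (otherwise 10 microM; SN-38 at 1 microM), decreasing in half-log steps.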

[1] = second compound 0.0316 µM, first compound 0.0316 µM
[2] = second compound 0.0316 µM, first compound 0.1 µM
[3] = second compound 0.0316 µM, first compound 0.316 µM
[4] = second compound 0.0316 µM, first compound 1 µM
[5] = second compound 0.0316 µM, first compound 3.16 µM
[6] = second compound 0.0316 µM, first compound 10 µM
[7] = second compound 0.1 µM, first compound 0.0316 µM
[8] = second compound 0.1 µM, first compound 0.1 µM
[9] = second compound 0.1 µM, first compound 0.316 µM
[10] = second compound 0.1 µM, first compound 1 µM
[11] = second compound 0.1 µM, first compound 3.16 µM
[12] = second compound 0.1 µM, first compound 10 µM
[13] = second compound 0.316 µM, first compound 0.0316 µM
[14] = second compound 0.316 µM, first compound 0.1 µM
[15] = second compound 0.316 µM, first compound 0.316 µM
[16] = second compound 0.316 µM, first compound 1 µM
[17] = second compound 0.316 µM, first compound 3.16 µM
[18] = second compound 0.316 µM, first compound 10 µM
[19] = second compound 1 µM, first compound 0.0316 µM
[20] = second compound 1 µM, first compound 0.1 µM
[21] = second compound 1 µM, first compound 0.316 µM
[22] = second compound 1 µM, first compound 1 µM
[23] = second compound 1 µM, first compound 3.16 µM
[24] = second compound 1 µM, first compound 10 µM
[25] = second compound 3.16 µM, first compound 0.0316 µM
[26] = second compound 3.16 µM, first compound 0.1 µM
[27] = second compound 3.16 µM, first compound 0.316 µM
[28] = second compound 3.16 µM, first compound 1 µM
[29] = second compound 3.16 µM, first compound 3.16 µM
[30] = second compound 3.16 µM, first compound 10 µM
[31] = second compound 10 µM, first compound 0.0316 µM
[32] = second compound 10 µM, first compound 0.1 µM
[33] = second compound 10 µM, first compound 0.316 µM
[34] = second compound 10 µM, first compound 1 µM
[35] = second compound 10 µM, first compound 3.16 µM
[36] = second compound 10 µM, first compound 10 µM
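Further: spheroids exposed to drugs for seven days before viability read.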
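Wherever viability, T/C is given: 100% = DMSO vehicle control wells.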

## C#Cc1c(F)ccc2cc(O)cc(-c3ncc4c(N5CC6CCC(C5)N6)nc(OCC56CCCN5CC(F)C6)nc4c3F)c12 (stereo unspecified) + Cc1cccc(N(C)C(=O)C2C(O)CCN2c2nc(C)cc(C(F)(F)F)c2C#N)c1
Second compound 0.0316 µM
  IC50: 2.41 µM
Second compound 0.1 µM
  IC50: 3.39 µM
Second compound 0.316 µM
  IC50: 1.49 µM
Second compound 1 µM
  IC50: 1.73 µM
Second compound 3.16 µM
  IC50: 2.02 µM
Second compound 10 µM
  IC50: 0.576 µM
[1]
  viability, T/C: 89.8%
[2]
  viability, T/C: 97.8%
[3]
  viability, T/C: 65.1%
[4]
  viability, T/C: 75.2%
[5]
  viability, T/C: 40.2%
[6]
  viability, T/C: 29.7%
[7]
  viability, T/C: 80.3%
[8]
  viability, T/C: 75.2%
[9]
  viability, T/C: 62%
[10]
  viability, T/C: 60.9%
[11]
  viability, T/C: 53.4%
[12]
  viability, T/C: 39.4%
[13]
  viability, T/C: 97.5%
[14]
  viability, T/C: 88.9%
[15]
  viability, T/C: 87.6%
[16]
  viability, T/C: 54.6%
[17]
  viability, T/C: 41.9%
[18]
  viability, T/C: 33.4%
[19]
  viability, T/C: 92%
[20]
  viability, T/C: 75%
[21]
  viability, T/C: 64.3%
[22]
  viability, T/C: 64.8%
[23]
  viability, T/C: 36.5%
[24]
  viability, T/C: 35.5%
[25]
  viability, T/C: 72.5%
[26]
  viability, T/C: 81.1%
[27]
  viability, T/C: 54.4%
[28]
  viability, T/C: 70.7%
[29]
  viability, T/C: 37.3%
[30]
  viability, T/C: 31.8%
[31]
  viability, T/C: 85.4%
[32]
  viability, T/C: 73.7%
[33]
  viability, T/C: 61.5%
[34]
  viability, T/C: 38.6%
[35]
  viability, T/C: 36.6%
[36]
  viability, T/C: 29.6%

## C=CC(=O)N1CCN(c2nc(=O)n(-c3c(C)ccnc3C(C)C)c3nc(-c4c(O)cccc4F)c(F)cc23)C(C)C1 (stereo unspecified) + Cc1cccc(N(C)C(=O)C2C(O)CCN2c2nc(C)cc(C(F)(F)F)c2C#N)c1
Second compound 0.0316 µM
  IC50: > 10 µM
Second compound 0.1 µM
  IC50: > 10 µM
Second compound 0.316 µM
  IC50: > 10 µM
Second compound 1 µM
  IC50: > 10 µM
Second compound 3.16 µM
  IC50: > 10 µM
Second compound 10 µM
  IC50: > 10 µM
[1]
  viability, T/C: 94.3%
[2]
  viability, T/C: 98.4%
[3]
  viability, T/C: 77%
[4]
  viability, T/C: 101%
[5]
  viability, T/C: 88.1%
[6]
  viability, T/C: 109%
[7]
  viability, T/C: 116%
[8]
  viability, T/C: 97.8%
[9]
  viability, T/C: 91.3%
[10]
  viability, T/C: 113%
[11]
  viability, T/C: 90.4%
[12]
  viability, T/C: 70.1%
[13]
  viability, T/C: 76.7%
[14]
  viability, T/C: 80.9%
[15]
  viability, T/C: 105%
[16]
  viability, T/C: 100%
[17]
  viability, T/C: 81.2%
[18]
  viability, T/C: 106%
[19]
  viability, T/C: 85.8%
[20]
  viability, T/C: 111%
[21]
  viability, T/C: 82.7%
[22]
  viability, T/C: 108%
[23]
  viability, T/C: 92.2%
[24]
  viability, T/C: 99.7%
[25]
  viability, T/C: 96%
[26]
  viability, T/C: 95%
[27]
  viability, T/C: 74.6%
[28]
  viability, T/C: 96.3%
[29]
  viability, T/C: 102%
[30]
  viability, T/C: 79.1%
[31]
  viability, T/C: 77.8%
[32]
  viability, T/C: 80.6%
[33]
  viability, T/C: 64.8%
[34]
  viability, T/C: 94.9%
[35]
  viability, T/C: 118%
[36]
  viability, T/C: 107%

## CCc1cc2c(N3CCc4c(cc(Cn5ccnc5)cc4-c4cn(C)nc4C(F)(F)F)C3=O)cc(C)nc2c(OC)n1 + Cc1cccc(N(C)C(=O)C2C(O)CCN2c2nc(C)cc(C(F)(F)F)c2C#N)c1
Second compound 0.0316 µM
  IC50: > 10 µM
Second compound 0.1 µM
  IC50: > 10 µM
Second compound 0.316 µM
  IC50: > 10 µM
Second compound 1 µM
  IC50: > 10 µM
Second compound 3.16 µM
  IC50: > 10 µM
Second compound 10 µM
  IC50: > 10 µM
[1]
  viability, T/C: 77.4%
[2]
  viability, T/C: 59%
[3]
  viability, T/C: 74%
[4]
  viability, T/C: 58.9%
[5]
  viability, T/C: 69.4%
[6]
  viability, T/C: 56.7%
[7]
  viability, T/C: 61.9%
[8]
  viability, T/C: 87%
[9]
  viability, T/C: 62.8%
[10]
  viability, T/C: 56.1%
[11]
  viability, T/C: 72%
[12]
  viability, T/C: 63%
[13]
  viability, T/C: 74.7%
[14]
  viability, T/C: 62.6%
[15]
  viability, T/C: 62.4%
[16]
  viability, T/C: 54.8%
[17]
  viability, T/C: 65.5%
[18]
  viability, T/C: 51.6%
[19]
  viability, T/C: 91.2%
[20]
  viability, T/C: 61.9%
[21]
  viability, T/C: 55.6%
[22]
  viability, T/C: 60.9%
[23]
  viability, T/C: 51.7%
[24]
  viability, T/C: 53.2%
[25]
  viability, T/C: 78.3%
[26]
  viability, T/C: 78.3%
[27]
  viability, T/C: 71.6%
[28]
  viability, T/C: 70.7%
[29]
  viability, T/C: 57.1%
[30]
  viability, T/C: 54.2%
[31]
  viability, T/C: 72.7%
[32]
  viability, T/C: 65.8%
[33]
  viability, T/C: 58.9%
[34]
  viability, T/C: 49.5%
[35]
  viability, T/C: 60.3%
[36]
  viability, T/C: 50.8%
